Holding throughout (type): cell-based
For experiment [1], the system named is SW480 colon cancer cells. Kind of experiment: Cell viability assay (CellTiter-Blue), SW480 cells. The conditions noted are these: Homo sapiens; for EC50: 96 h, four days, CellTiter-Blue; for inhibition at 10 µM: given for EC50 >10 μM, read-out: percent inhibition at 10 μM. An outline of the steps: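 SW480 cells (~2×10^3/well) exposed to compound for four days at 37 °C/5% CO2, 1:3 8-point dilutions […]. Viability read by CellTiter-Blue resazurin reduction (~3 h, Ex 560/Em 590 nm); EC50 by non-linear regression, with % inhibition at 10 μM given when EC50 >10 μM.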
A general note: The colour change of resazurin is a common sign of viable cells or microbes.

For experiment [2], the system named is IL-6. Kind of experiment: IL-6 inhibition in LPS-stimulated THP-1 cells (HTRF). As to conditions: Homo sapiens; for EC50: LPS 500 ng/mL, 22 hours, IL6 HTRF; for inhibition at 10 µM: given for EC50 >10 μM, LPS, IL6, at 10 M [sic], read-out: percent inhibition at 10 M. An outline of the steps:
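THP-1 monocytes, serum-reduced (1% FBS) for 24 h, were preincubated 2 h with compound at 0.1% DMSO (10-point, 1:3 dilutions from 10 μM), then stimulated with 500 ng/mL LPS for 22 h at 37 °C. IL-6 was quantified by HTRF (665/620 nm ratio), normalized to DMSO. EC50 came from 4-parameter regression, or % inhibition at 10 μM.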
For orientation: In TR-FRET formats the signal depends on donor and acceptor labels being close together.

The test system of experiment [3] is primary human mesenchymal stem cells (hMSCs). Nature of the experiment: Chondrogenesis induction in hMSCs (chondrogenic nodules). The conditions noted are these: 144 h, 6 days; for EC50: concentration required to induce 50% levels of chondrogenesis vs TGF-β3, read-out: Conc (nM) of 50% TGF-β3 activity; for Emax: nodules, relative to TGF-β3 positive control (10 ng/mL), read-out: Max. Activity as % TGF-β3 activity. As for the experimental part: Representative compounds were screened using primary human mesenchymal stem cells (hMSCs) to determine their ability to induce chondrogenesis (process by which cartilage is developed).
Primary human mesenchymal stem cells (hMSCs) were purchased from Lonza (Walkersville, Md.) and expanded in Mesenchymal Stem Cell Growth Media (Lonza). Cells between passage 3 and 6 were used for the experiments.
Each compound was dissolved in DMSO as a 10 mM stock and used to prepare compound source plates. Serial dilution (1:3, 6-point dose-response curves from 2700 nM to 10 nM) and compound transfer was performed using the ECHO 550 (Labcyte, Sunnyvale, Calif.) into 96-well clear bottom assay plates (Greiner Bio-One) with appropriate DMSO backfill for a final DMSO concentration of 0.03%. hMSCs were plated at 20,000 cells/well in 250 μL/well Incomplete Chondrogenic Induction Medium (Lonza; DMEM, dexamethasone, ascorbate, insulin-transferrin-selenium [ITS supplement], gentamycin-amphotericin [GA-1000], sodium pyruvate, proline and L-glutamine). TGF-03 (10 ng/mL) was used as a positive control for differentiation while negative control wells were treated with 75 nL DMSO for normalization and calculating EC50 values. Cells were incubated at 37° C. and 5% CO2 for 6 days. To image chondrogenic nodules, the cells were fixed using 4% formaldehyde (Electron Microscopy Sciences), and stained with 2 μg/mL Rhodamine B (Sigma-Aldrich) and 20 μM Nile Red (Sigma-Aldrich) [Johnson K., et. al, A Stem Cell-Based Approach to Cartilage Repair, Science, (2012), 336(6082), 717-721]. The nodules imaged (4 images per well at 4× magnification) by excitation at 531 nm and emission at 625 nm and quantified using the CellInsight CX5 (Thermo Scientific). Number of nodules in each well was normalized to the average of 3 DMSO treated wells on the same plate using Excel (Microsoft Inc.). The normalized averages (fold change over DMSO) of 3 replicate wells for each compound concentration were calculated. Due to solubility limitations of some of the compounds, curve fitting was incomplete leading to inaccurate EC50 determinations.
Using TGF-β3 as a positive control, the concentration of representative compounds required to induce 50% levels of chondrogenesis is reported. In addition, the maximum activity of each compound and the respective dose that each compound reached maximum chondrogenesis activity is reported.

The inhibition is the share of the control response that was lost under treatment. As for `CS(=O)(=O)NCc1cc(F)cc(-c2cncc3[nH]c(-c4n[nH]c5ccc(-c6cncnc6)nc45)cc23)c1` [Compound 503, N-(3-Fluoro-5-(2-(5-(pyrimidin-5-yl)-1H-pyrazolo[4,3-b]pyridin-3-yl)-1H-pyrrolo[2,3-c]pyridin-4-yl)benzyl)methane sulfonamide], in experiment [1], the EC50 was > 10 µM and the inhibition at 10 µM is 28.3%. Moreover, the EC50 in experiment [2] amounted to 649 nM. For the same compound, in experiment [3], the EC50 stood at 10 nM and the Emax came to 106%.

For `CN(C)Cc1cncc(-c2ccc3[nH]nc(-c4cc5c(-c6ccccc6F)cncc5[nH]4)c3n2)c1` [Compound 69, 1-(5-(3-(4-(2-Fluorophenyl)-1H-pyrrolo[2,3-c]pyridin-2-yl)-1H-pyrazolo [4,3-b]pyridin-5-yl)pyridin-3-yl)-N,N-dimethylmethanamine], the EC50 in experiment [1] stood at 0.557 µM; in experiment [2], 1150 nM; in experiment [3], 30 nM. The Emax in experiment [3] is 51%.

As for `O=C(Nc1cncc(-c2ccc3[nH]nc(-c4cc5ccncc5[nH]4)c3n2)c1)C1CCCC1` [Compound 274, N-(5-(3-(1H-Pyrrolo[2,3-c]pyridin-2-yl)-1H-pyrazolo[4,3-b]pyridin-5-yl)pyridin-3-yl)cyclopentanecarboxamide], the EC50 in experiment [1] is 3.12 µM; in experiment [2], 235 nM; in experiment [3], 30 nM. In addition, the Emax in experiment [3] was found to be 50%.

As for `Fc1ccc(-c2cncc3[nH]c(-c4n[nH]c5ccc(-c6cncc(CN7CCC(F)(F)C7)c6)nc45)cc23)cc1` [Compound 54, 5-(5-((3,3-Difluoropyrrolidin-1-yl)methyl)pyridin-3-yl)-3-(4-(4-fluorophenyl)-1H-pyrrolo[2,3-c]pyridin-2-yl)-1H-pyrazolo[4,3-b]pyridine], the EC50 in experiment [1] turned out to be 0.827 µM; in experiment [2] it was 177 nM; in experiment [3], 900 nM. Further, the Emax in experiment [3] is 194%.

In the case of `Cc1ccncc1-c1ccc2[nH]nc(-c3cc4c(-c5cccnc5)cncc4[nH]3)c2n1` [Compound 89, 5-(4-Methylpyridin-3-yl)-3-(4-(pyridin-3-yl)-1H-pyrrolo[2,3-c]pyridin-2-yl)-1H-pyrazolo[4,3-b]pyridine], the EC50 in experiment [1] is 8.84 µM; in experiment [2] it was 424 nM; in experiment [3], 10 nM. Moreover, the Emax in experiment [3] is 149%.

With `Cc1ccncc1-c1ccc2[nH]nc(-c3cc4c(-c5ccc(F)cc5)cncc4[nH]3)c2n1` [Compound 33, 3-(4-(4-Fluorophenyl)-1H-pyrrolo[2,3-c]pyridin-2-yl)-5-(4-methylpyridin-3-yl)-1H-pyrazolo[4,3-b]pyridine], the EC50 was 1.86 µM in experiment [1] and > 10000 nM in experiment [2]. Moreover, the inhibition at 10 µM in experiment [2] was 37.8%. Besides, the Emax in experiment [3] is 28%.

On to `c1cc(-c2cncc3[nH]c(-c4n[nH]c5ccc(-c6cncc(CN7CCCCC7)c6)nc45)cc23)ccn1` [Compound 127, 5-(5-(Piperidin-1-ylmethyl)pyridin-3-yl)-3-(4-(pyridin-4-yl)-1H-pyrrolo[2,3-c]pyridin-2-yl)-1H-pyrazolo[4,3-b]pyridine], for which the EC50 in experiment [1] turned out to be 5.26 µM; in experiment [2], 2860 nM; in experiment [3], 10 nM. Besides, the Emax in experiment [3] was 97%.

As for `FC1(F)CCN(Cc2cncc(-c3ccc4[nH]nc(-c5cc6c(-c7cccnc7)cncc6[nH]5)c4n3)c2)C1` [Compound 110, 5-(5-((3,3-Difluoropyrrolidin-1-yl)methyl)pyridin-3-yl)-3-(4-(pyridin-3-yl)-1H-pyrrolo[2,3-c]pyridin-2-yl)-1H-pyrazolo[4,3-b]pyridine], the EC50 was 4.86 µM in experiment [1] and 380 nM in experiment [2]. Moreover, in experiment [3], the Emax was 23%.

Turning to `CS(=O)(=O)NCc1cc(F)cc(-c2cncc3[nH]c(-c4n[nH]c5ccc(-c6ccccn6)nc45)cc23)c1` [Compound 504, N-(3-Fluoro-5-(2-(5-(pyridin-2-yl)-1H-pyrazolo[4,3-b]pyridin-3-yl)-1H-pyrrolo[2,3-c]pyridin-4-yl)benzyl)methanesulfonamide], in experiment [1], the EC50 is > 10 µM and the inhibition at 10 µM was found to be 47.6%. Besides, in experiment [2], the EC50 is 31 nM. For the same compound, in experiment [3], the EC50 worked out at 300 nM and the Emax amounted to 99%.

For the compound `Fc1cccc(-c2cncc3[nH]c(-c4n[nH]c5ccc(-c6cncc(CN7CCCCC7)c6)nc45)cc23)c1` [Compound 15, 3-(4-(3-Fluorophenyl)-1H-pyrrolo[2,3-c]pyridin-2-yl)-5-(5-(piperidin-1-ylmethyl)pyridin-3-yl)-1H-pyrazolo[4,3-b]pyridine], the EC50 in experiment [1] was determined as 4.61 µM. For the same compound, in experiment [2], the EC50 was > 10000 nM and the inhibition at 10 µM came out at 51.3%. In addition, in experiment [3], the EC50 came to 10 nM and the Emax stood at 54%.

For the origin of these results see patent publication US10519169B2, “3-(1H-pyrrolo[2,3-C]pyridin-2-yl)-1 H-pyrazolo[4,3-B]pyridines and therapeutic uses thereof” (Samumed, LLC, priority 2015, dated 2019).
